Laboratory results published in paper PMC6854577, “Quantitation of Thyroid Hormone Binding to Anti-Thyroxine Antibody Fab Fragment by Native Mass Spectrometry” (ACS Omega, 2019).
Several values for one entry are separate records, joined by “and”; a condition that tells them apart may be missing. Equal entries are not always repeated.

Tests used:
[1] = target: anti-T4 antibody Fab fragment; assay: Native MS (ESI FT-ICR) direct ligand titration; type: binding, mouse; details: 0.005-2.0 μM T2, 0.1 μM Fab
Experimental: All mass spectrometric experiments were performed by using a 12-T Bruker solariX XR Fourier transform ion cyclotron resonance (FT-ICR) instrument (Bruker Daltonics, Bremen, Germany) equipped with an electrospray ionization (ESI) source (Apollo-II). Mass spectra were obtained in a positive ion mode, and the samples were directly infused to the ion source at a flow rate of 2 μL min^–1. Dry nitrogen was used as nebulizing (4.0 L min^–1) and drying (80 °C, 1.0 bar) gas. The ions were accumulated in the hexapole ion trap for 3.5 s and then transferred to the dynamically harmonized ICR cell (Paracell) for trapping, excitation, and detection. The time of flight was set to 3.5 ms. […] The data acquisition was attained by ftmsControl 2.1 software and further processed and analyzed by DataAnalysis 4.2 SR1 software. […]
A direct ligand titration[9],[22],[23] was used to determine the binding constant for the “low-affinity” reference ligand. […] The fractional saturation (Y) of the protein was calculated from the intensity ratio of the protein–ligand complex (PL) and free protein (P) for every single ligand (L) concentration (intensities averaged over different charge states), and the data were fitted into the specific, single-site binding model[24] […] Five replicate samples were prepared and measured for each T2 concentration. […]

[2] = target: anti-T4 antibody Fab fragment; assay: Native MS initial ligand screening (approximate affinities, stoichiometry); type: binding, mouse; details: 0.1 μM Fab; for approximate binding affinity: initial ligand screening
Experimental: (§1) All mass spectrometric experiments were performed by using a 12-T Bruker solariX XR Fourier transform ion cyclotron resonance (FT-ICR) instrument (Bruker Daltonics, Bremen, Germany) equipped with an electrospray ionization (ESI) source (Apollo-II). Mass spectra were obtained in a positive ion mode, and the samples were directly infused to the ion source at a flow rate of 2 μL min^–1. Dry nitrogen was used as nebulizing (4.0 L min^–1) and drying (80 °C, 1.0 bar) gas. The ions were accumulated in the hexapole ion trap for 3.5 s and then transferred to the dynamically harmonized ICR cell (Paracell) for trapping, excitation, and detection. The time of flight was set to 3.5 ms. All other instrumental parameters were carefully adjusted to preserve noncovalent interactions in the gas phase. […] The mass spectra were externally calibrated by the ESI Tuning mix (part no. G2431A; Agilent Technologies, Santa Clara, CA). The mass spectra were acquired from m/z 1500 to 5000. The data acquisition was attained by ftmsControl 2.1 software and further processed and analyzed by DataAnalysis 4.2 SR1 software. All native MS experiments were performed in 20 mM aqueous ammonium acetate (pH 6.9) solution.
First, the approximate binding affinities of thyroid hormones and tetrahalogen bisphenols to anti-T4 Fab were determined via initial screening experiments (Figures S1–S7).

anti-T4 Fab = tested on: anti-T4 Fab; parameters: method as in PMID 9095353, PMID 9460543; details: SPR, cited from earlier work
[3] = target: anti-T4 antibody Fab fragment; assay: Native MS (ESI FT-ICR) ligand competition with T2 as low-affinity reference ligand; type: binding, mouse; details: for binding affinity (in words): native MS
Experimental: as §1, with “All native MS experiments were performed in 20 mM aqueous ammonium acetate (pH 6.9) solution.” left out
To determine the binding affinities for the other ligands, ligand competition experiments were performed.[25],[26] Briefly, T2 was used as the “low-affinity” reference ligand, whose accurate Kd value was determined earlier by the direct ligand titration. The two ligands, competing for the same binding site in anti-T4 Fab, were mixed at the appropriate concentrations (determined earlier by initial screening experiments) with the protein at a fixed concentration of 0.1 μM. Ten replicates were measured for each ligand pair from three different samples.
A mathematical model to calculate Kd values from the competition experiments was as follows: For L and Lref, competing for a single binding site in P, the two equilibrium reactions are [drawing 2] [drawing 3] where P is the receptor protein, L is the ligand, and Lref is the “low-affinity” reference ligand. Briefly, the intensity ratio (R) of the total abundance of the ligand-bound protein (PL) and free protein (P) was calculated for each spectrum. The affinity measurement for the “low-affinity” ligand (Lref) was performed by a direct titration method. The individual Kd values for L and Lref are derived as [drawing 4] 2 [drawing 5] 3 where the brackets represent equilibrium concentrations of L, Lref, P, PL, and PLref. The mass balance equations at equilibrium are [drawing 6] 4 [drawing 7] 5 [drawing 8] 6 where [P]total, [L]total, and [Lref]total are the total protein, ligand, and reference ligand concentrations, respectively.
At equilibrium, [P] is the same for both ligands, and thus, eqs. […] were simplified to [drawing 9] 7
The ESI-MS spectrum directly provides normalized intensities (“concentration coefficients”) i(P), i(PL), and i(PLref), such that their sum equals 1, which can then be used to calculate equilibrium concentrations by eqs 8, 9, and 10: [drawing 10] 8 [drawing 11] 9 [drawing 12] 10 These calculations are valid if one assumes that the ionization and ion transmission efficiencies for P, PL, and PLref are the same (they are if mL ≈ mLref ≪ mP, which is true in this case), and there is no complex dissociation upon ionization/desolvation stages (i.e., careful adjustments of instrumental parameters). The intensities should be calculated as integrated sums of different charge states to avoid any bias resulting from different CSDs between the free and bound proteins. The free ligand concentrations, [L] and [Lref], can be obtained from eqs 5 and 6. The equilibrium concentrations [L], [Lref], [PL], and [PLref] as well as the predetermined/known Kd(Lref) can be inserted into eq 7 to calculate Kd(L).

THRα1 = target: THRα1; parameters: method as in PMID 15466465; details: cited from earlier work
[4] = 0.1 μM Fab, 20 mM ammonium acetate pH 6.8, ligand and reference ligand (T2) concentrations per Table 1, mean ± SD, 10 replicates of three samples, read-out: Kd
[5] = T4/T2 0.14/0.5 μM, T3/T2 0.14/0.5 μM, T0/T2 15/0.05 μM, 0.1 μM Fab, read-out: Kd (self-validation at second ligand concentrations)

| Structure (SMILES) | approximate binding affinity [2] | Kd [3, 4] [nM] | binding affinity (in words) ([3]; anti-T4 Fab) | Kd [3, 5] [nM] | also measured |
| --- | --- | --- | --- | --- | --- |
| N[C@@H](Cc1ccc(Oc2ccc(O)c(I)c2)c(I)c1)C(=O)O [T2, 3,3′-diiodo-L-thyronine] | submicrometer range |  |  |  | Kd ([1]; 20 mM ammonium acetate pH 6.8): 260 nM; Kd ([1]; 20 mM ammonium acetate pH 6.8, one-site binding fit, five replicates): 263 nM and 260 nM; binding (anti-T4 Fab; within the Kd range accessible by the technique): did not show any binding |
| CC(C)(c1cc(Br)c(O)c(Br)c1)c1cc(Br)c(O)c(Br)c1 [TBB, tetrabromobisphenol-A] | submicromolar to micromolar affinity range | 87 | nanomolar binding affinities |  |  |
| CC(C)(c1cc(Cl)c(O)c(Cl)c1)c1cc(Cl)c(O)c(Cl)c1 [TCB, tetrachlorobisphenol-A] | submicromolar to micromolar affinity range | 7800 |  |  | ligand saturation ([2]; ligand added until saturation): saturative binding was not observed even at a molar ligand excess of 200 |
| N[C@@H](Cc1ccc(Oc2ccc(O)cc2)cc1)C(=O)O [T0, L-thyronine] | submicromolar to micromolar affinity range | 130000 |  | 174000 | binding affinity relative to T3 ([3]; anti-T4 Fab, native MS Kd values compared): approximately five orders of magnitude lower; Kd ([3]; competition with T2 as reference ligand, as given in the abstract, read-out: Kd): 130000 nM |
| N[C@@H](Cc1cc(I)c(Oc2cc(I)c(O)c(I)c2)c(I)c1)C(=O)O [T4, L-thyroxine] | low nanomolar binding affinities | 29 |  | 23.9 | Kd (THRα1): 2 nM; affinity relative to T3 (anti-T4 Fab): approximately 10 times |
| CC(C)(c1cc(I)c(O)c(I)c1)c1cc(I)c(O)c(I)c1 [TIB, tetraiodobisphenol-A] | submicromolar to micromolar affinity range | 11 | nanomolar binding affinities |  |  |
